Test [1] relates to retinal ganglion cell. The test can be described thus: Kainic acid-induced retinal ganglion cell death model, retinal tissue pNF-H content by sandwich ELISA (Test Example 5). It counts as in vivo, rat. The conditions noted are these: 7 days after exposure. The text has this: In order to clarify whether or not the IL-6 which is expressed in a delayed manner in Muller cell (Test Example 3) is concerned in the retinal ganglion cell death inhibitory effect of PACAP confirmed in Test Example 4, this was verified using the same animal model and using neurofilament (phosphorylated neurofilament-H; pNF-H) protein in the retinal tissue as the index. It is known that pNF-H is a protein which is specifically expressed in the retinal ganglion cell, and that the content of this protein in the retinal tissue can be used as a quantitative index for estimating degree of the retinal ganglion cell death.
A group in which 10 μmol of PACAP 38 is injected into the vitreous body 2 days before the kainic acid exposure in the same manner as in Test Example 4 (pretreatment group) and another group in which the same amount of PACAP is injected simultaneously with kainic acid (simultaneous treatment group) were set up as the test groups. The retinal tissue was collected 7 days after the kainic acid exposure, and the pNF-H protein was extracted. Amount of the pNF-H protein in retinal tissue was measured by the sandwich ELISA.

The test system of test [2] is Muller cell of the retina. The test can be described thus: IL-6 expression in retinal tissue after administration into the vitreous body, anti-IL-6 immunostaining (Test Example 3). The class given is in vivo, rat. The conditions noted are these: 10^−11 mol PACAP. The procedure:
The PACAP 38 was dissolved in sterile physiological saline to a concentration of 3.3 nmol/ml. This was stored under ice-cooling until just before the administration.
Male Wister/ST rats of 8 weeks of age were used in this test. After anesthesia by intraperitoneal administration of pentobarbital sodium, 3 μl per one eye of the administration liquid was injected from about 1 mm behind the limbus using a Hamilton glass syringe equipped with a 30G needle, that is, the liquid was injected into the vitreous body in such a manner that 10^−11 mol of PACAP reached the retina. After 1, 2, 3 and 7 days of the PACAP administration, each animal was sacrificed by bleeding through the cutting of abdominal aorta under diethyl ether inhalation anesthesia, and then both eyeballs were enucleated, and fixed with ice-cold 4% paraformaldehyde-0.1 M phosphate buffer (pH 7.4). The fixed eyeballs were subjected to sucrose replacement and then freeze-embedded to prepare frozen sections of 10 μm in thickness. By applying fluorescence immunostaining to each of the frozen sections using an anti-IL-6 antibody, expression of IL-6 in the retina was observed.

The subject of test [3] is retinal ganglion cell. The test can be described thus: Kainic acid-induced retinal ganglion cell death model, number of cells remaining in the ganglion cell layer (Test Example 4). It counts as in vivo, rat. The procedure: Retinal nerve protecting effect was examined using a kainic acid-induced retinal ganglion cell death animal model.
Male Wister/ST rats of 8 weeks of age were used in the test. After anesthesia by intraperitoneal administration of pentobarbital sodium, PACAP 38 (10 μmol) dissolved in sterile physiological saline or the administration solvent (physiological saline) as the negative control was injected once into the vitreous body in the same manner as in Test Example 3. Two days after the PACAP administration, kainic acid (5 nmol) was injected once into the vitreous body of each animal under anesthesia by a mixed liquid of ketamine and seractal. 7 days after the kainic acid administration, all animals were sacrificed by bleeding through the cutting of abdominal aorta under diethyl ether inhalation anesthesia and their eyeballs were enucleated. The enucleated eyeballs were fixed by soaking in a 1% formaldehyde-1.25% glutaraldehyde mixed fixing liquid. The fixed eyeballs were embedded in paraffin, and then retinal tissue sections of 4 μm in thickness traversing the optic disc were prepared and subjected to hematoxylin eosin staining. Effect of PACAP was judged by counting the number of cells remaining in the ganglion cell layer within a region of from 0.5 to 1.7 mm from the optic disc of each tissue specimen. […]

Test [4] has as its system cultured rat Muller cell. The test can be described thus: IL-6 production acceleration effect in cultured Muller cell (Test Example 1; IL-6 measured by B9 cell bioassay). The class given is cell-based. The following applies: 24 hours after addition of PACAP 38 (10^−12 M, 10^−9 M to 10^−6 M), vs no addition, p<0.01. The procedure:
Wister/ST rats of 14 days of age (20 animals) were sacrificed by bleeding through the cutting of abdominal aorta under diethyl ether anesthesia. The 40 eyeballs were immediately enucleated and soaked in Dulbecco's modified minimum essential medium (DMEM) containing 25 mM HEPES and antibiotics (penicillin 100 U/ml, streptomycin 100 μg/ml, amphotericin B 0.25 μg/ml), one night at room temperature under shade. Next, the eyeballs were transferred into DMEM containing 0.1% trypsin and 70 U/ml collagenase and incubated at 37° C. for 60 minutes. Thereafter, retinas were removed from the eyeballs and transferred into DMEM supplemented with antibiotics and 10% FBS (medium for culturing use) (8 retinas/10 ml DMEM). The retinas were dispersed and suspended until they became small aggregates through the pipetting using a Pasteur pipette having thinned tip. This cell suspension was seeded onto a polystyrene dish (Asahi Techno Glass) and cultured by keeping at 37° C. under an environment of 5% CO2/95% air. […]
The IL-6 concentration in the thus recovered Muller cell culture supernatant was measured using B9 cell which is a hybridoma sub-clone of an IL-6-dependent mouse. […] Regarding the bioassay of IL-6, growth of B9 cell was determined as the fluorescence intensity by Alamar Blue.

Ends that are not written are not given here.

On to “pituitary adenylate cyclase-activating polypeptide (HSDGIFTDSYSRYRKQMAVKKYLAAVLGKRYKQRVKNK; ends and bridges not checked; listed as Ovis sp.) [PACAP 38]”, for which the “reduction of the amount of pNF-H protein in the retinal tissue induced by kainic acid” value in test [1] (pretreatment group: 10 μmol PACAP 38 intravitreal 2 days before kainic acid, vs saline, p<0.01) was “inhibited with a significance”. For the same substance, the “effect to inhibit reduction of the amount of pNF-H” value in test [1] (simultaneous treatment group: 10 μmol PACAP 38 injected simultaneously with kainic acid) is reported as “completely absent”. Besides, the “Expression of IL-6 in the retina” value in test [2] (1 day after intravitreal administration) is “not found”; in test [2] (7 days after intravitreal administration), “hardly observed”. In addition, the “IL-6-positive cell in the retina” value in test [2] (2 days after intravitreal administration) and in test [2] (3 days after intravitreal administration) was “frequently observed” in each case. The “Average value of the number of cells remaining in the ganglion cell layer” value in test [3] (PACAP 38 (10 μmol) intravitreal 2 days before kainic acid (5 nmol), 7 days after kainic acid, 0.5 to 1.7 mm from optic disc) is 34.8 cells/mm. In test [3] (PACAP 38 (10 μmol) intravitreal 2 days before kainic acid, vs physiological saline control, p<0.05), the “inhibition of the reduction of the number of cells caused by kainic acid” value is given as “found with a significance”. Also, the “IL-6 concentration in the culture liquid” value in test [4] is “significantly increased”.

Source of the values: patent US20080300182A1, “Eye disease treating agent and method for treating eye disease” (NIDEK CO., LTD., priority 2005, published 2008).
